Columns and labels:
[1] = biological target: EZH2 (Homo sapiens, UniProt Q15910); assay: EZH2 Assay (3H SAM methyl transfer, rPRC2, FlashPlate); assay type: biochemical; settings: rPRC2, biotinylated oligonucleosomes, 0.2 μM 3H SAM, 2 nM EZH2
Summary of the method: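 rPRC2 (2 nM EZH2) was preincubated 20 min with compound (80 to 0.16 μM, 10 points), then reacted 60 min with 0.2 μM ³H-SAM, 0.2 μM biotinylated oligonucleosomes and 3.6 μM H3K27me3 peptide at pH 8.5. Methylated product was captured on SAV FlashPlates and counted, and IC50 came from a 4-parameter fit.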

[2] = tested on: H3K27me3 mark in Hela cells expressing wild type EZH2; assay: H3K27me3 MSD Hela Assay; assay type: cell-based; settings: Homo sapiens, HeLa, 96 h, read-out: H3K27me3_MSD_HeLa (EC50)
Description: H3K27me3 MSD Hela Assay. Trypsinized HeLa cells were counted and diluted in 10% DMEM (Life Technologies, Cat. #10569) to 5000 cells/75 μL. Seventy-five μL of cells were place in each well of a 96-well flat-bottomed plate and incubated at 37° C. for 4 hours. Twenty-five μL of test compound (at various concentrations) was added to the cells and incubation continued at 37° C. for 96 hours. Media was then removed and the cells rinsed once with ice cold PBS. Forty μL of ice-cold MSD Buffer AT (10 mM HEPES, pH 7.9, 5 mM MgCl2, 0.25M sucrose, Benzonase (1:10000), 1% Triton X-100 supplemented with fresh 1× Protease Inhibitor cocktail and 1 mM 4-(2-Aminoethyl)benzenesulfonyl fluoride hydrochloride (AEBSF)) was added to each well and the plates placed on ice for 30 minutes. Ten μL of 5M NaCl was then added to each well and incubation on ice continued for another 15 minutes. The material in each well was suspended pipetting up and down and then transferred to a new 96 well plate. The emptied wells were rinsed with 150 uL ice-cold 20 mM Tris pH 7.5, 1 mM EDTA, 1 mM EGTA, supplemented with fresh 1× Protease Inhibitor cocktail and 1 mM AEBSF (“NO salt NO detergent buffer) and transferred to the respective wells in the new plate. Three hundred μL of NO Salt NO detergent buffer was then added to each well of lysates and the plates frozen at −80° C.
On the same day, an appropriate number of MSD standard bind 96-well plates were coated with 30 μL/well of total H3 capture antibody (Millipore, Cat # MAB3422) at 1 μg/mL concentration in PBS. The antibody solution was evenly distributed first by tapping gently on the sides of the plates and then by shaking the plates for a few minutes at 1000 rpm. Antibody coated plates were stored at 4° C. overnight.
The next day the lysates are thawed to RT. The antibody coated MSD plates are washed 3× with TBS-T (Tris-buffered saline (Fisher Scientific, Cat #BP2471-1)+0.2% Tween-20). One-hundred fifty μL of 5% Blocker A in TBS-T is added to each well. The wells are covered and shaken on a shaker at RT for one hour. The Blocker A step is repeated a second time. After removing the blocker, 25 μL of cell lysate is transferred into each antibody coated well. The plates are shaken for 2 hours at RT, the lysate removed and the plates again washed with Blocker A in TBS-T. Twenty-five μL of appropriate freshly prepared antibody mix (including both primary and secondary antibodies) is added to each well and the plates shaken for 1 hour at RT.
Both H3 antibodies were obtained from Cell Signalling (Cat #s 4499 and 9733). The goat anti-rabbit antibody was obtained from Meso-Scale Discovery (Cat #R32AB-1).
The antibody mix was then removed and the wells washed with Blocker A. One hundred-fifty μL of freshly prepared 1×MSD Read Buffer (Meso-Scale Discovery; Cat #R927C-2) was then added to each well and the plates read on a MSD Sector 2400 Plate Reader.
Data was analyzed using Assay Assistant (Constellation Pharmaceuticals In-house product) and Activity Base (IDBS Ltd, Surrey, UK) template. Data files were imported to Assay Assistant and assay conditions were specified. A unique Analysis ID was created and the data files exported to Activity Base. An analysis template was created on Activity Base to measure dose-dependent inhibition of H3K27me3 mark and cell viability respectively. Readout of DMSO wells were used to normalize the data. Resulting curves were fitted using Activity base software Model 205 (IDBS Ltd, Surrey, UK). The data was checked for quality, validated and integrated in excel format using SARview (IDBS Ltd, Surrey, UK).

[3] = biological target: Y641N EZH2 (Homo sapiens, UniProt Q15910, Y641N); assay: Assay for Y641N EZH2 (as the EZH2 assay, H3K27Me2 oligonucleosomes as substrate); assay type: biochemical; settings: Y641N EZH2 mutant, reconstituted H3K27Me2 oligonucleosomes as substrate
Summary of the method: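 rPRC2 (2 nM EZH2) with 0.2 μM reconstituted H3K27Me2 biotinylated oligonucleosomes, 3.6 μM H3K27me3 peptide, 0.2 μM ^3H SAM in Tris pH 8.5; compounds (80 to 0.16 μM, 2-fold) pre-incubated 20 min, reaction 60 min, SAH/EDTA quench. Tritiated product captured on streptavidin plates, scintillation counted; IC50 from 4-parameter fit.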

EZH2, sequence (Q15910 whole entry): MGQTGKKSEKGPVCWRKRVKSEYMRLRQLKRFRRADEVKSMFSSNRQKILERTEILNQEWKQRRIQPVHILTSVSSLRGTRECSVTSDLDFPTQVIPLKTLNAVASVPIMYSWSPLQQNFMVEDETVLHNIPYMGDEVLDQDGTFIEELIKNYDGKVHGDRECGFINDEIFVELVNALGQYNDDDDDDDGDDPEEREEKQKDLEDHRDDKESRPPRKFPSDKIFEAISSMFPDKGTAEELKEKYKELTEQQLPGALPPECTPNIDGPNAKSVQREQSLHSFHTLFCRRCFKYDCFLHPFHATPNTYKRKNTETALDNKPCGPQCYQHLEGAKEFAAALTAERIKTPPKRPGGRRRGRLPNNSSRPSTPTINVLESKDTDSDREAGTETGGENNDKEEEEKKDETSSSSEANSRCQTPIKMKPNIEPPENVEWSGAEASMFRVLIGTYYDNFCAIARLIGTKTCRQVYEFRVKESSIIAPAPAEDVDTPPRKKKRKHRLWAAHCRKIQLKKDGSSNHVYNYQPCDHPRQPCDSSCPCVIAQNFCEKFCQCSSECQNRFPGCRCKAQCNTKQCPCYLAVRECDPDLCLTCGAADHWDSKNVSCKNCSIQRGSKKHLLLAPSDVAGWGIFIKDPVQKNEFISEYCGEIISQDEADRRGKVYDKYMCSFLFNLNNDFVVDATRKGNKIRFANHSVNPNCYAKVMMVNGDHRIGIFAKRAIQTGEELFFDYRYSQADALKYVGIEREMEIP
EZH2, sequence (O75530 whole entry partner): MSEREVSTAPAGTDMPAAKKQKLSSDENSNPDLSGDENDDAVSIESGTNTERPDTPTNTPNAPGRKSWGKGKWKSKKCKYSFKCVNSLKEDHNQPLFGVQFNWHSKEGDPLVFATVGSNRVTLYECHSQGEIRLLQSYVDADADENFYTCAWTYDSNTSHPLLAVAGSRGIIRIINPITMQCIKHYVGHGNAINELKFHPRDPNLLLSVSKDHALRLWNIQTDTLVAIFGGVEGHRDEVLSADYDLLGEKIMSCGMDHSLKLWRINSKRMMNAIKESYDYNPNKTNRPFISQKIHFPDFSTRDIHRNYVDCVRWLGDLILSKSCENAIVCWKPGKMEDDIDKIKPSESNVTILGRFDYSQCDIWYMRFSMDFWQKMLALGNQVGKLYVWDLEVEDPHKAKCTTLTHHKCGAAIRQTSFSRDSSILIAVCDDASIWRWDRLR
EZH2, sequence (Q15022 whole entry partner): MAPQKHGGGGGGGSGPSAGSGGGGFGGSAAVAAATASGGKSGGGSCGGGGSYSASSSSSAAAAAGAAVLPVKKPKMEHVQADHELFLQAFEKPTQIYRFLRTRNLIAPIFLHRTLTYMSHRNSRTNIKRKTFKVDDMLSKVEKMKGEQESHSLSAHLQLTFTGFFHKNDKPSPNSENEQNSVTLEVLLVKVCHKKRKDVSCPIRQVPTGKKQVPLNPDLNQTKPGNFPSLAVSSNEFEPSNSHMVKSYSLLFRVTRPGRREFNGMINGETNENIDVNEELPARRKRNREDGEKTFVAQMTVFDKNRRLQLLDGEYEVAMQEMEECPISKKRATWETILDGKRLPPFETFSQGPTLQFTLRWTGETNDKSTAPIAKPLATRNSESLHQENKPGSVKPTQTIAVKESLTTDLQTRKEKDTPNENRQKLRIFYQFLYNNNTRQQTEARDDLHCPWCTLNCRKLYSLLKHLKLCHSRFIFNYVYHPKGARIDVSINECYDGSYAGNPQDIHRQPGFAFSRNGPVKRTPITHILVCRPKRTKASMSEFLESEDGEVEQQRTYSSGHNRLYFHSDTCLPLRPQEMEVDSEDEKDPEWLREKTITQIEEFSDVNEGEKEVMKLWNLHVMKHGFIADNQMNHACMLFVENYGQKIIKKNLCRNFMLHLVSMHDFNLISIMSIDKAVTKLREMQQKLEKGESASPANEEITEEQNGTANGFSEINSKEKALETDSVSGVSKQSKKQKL
Y641N EZH2, sequence (Q15910 whole entry Y641N): as the sequence (Q15910 whole entry) above, with Y641N counted along it
Y641N EZH2, sequence (O75530 whole entry partner): as the sequence (O75530 whole entry partner) above
Y641N EZH2, sequence (Q15022 whole entry partner): as the sequence (Q15022 whole entry partner) above

Row | Structure (SMILES) | IC50 [1] | EC50 [2] | IC50 [3]
1 | COc1cc(C)[nH]c(=O)c1CNC(=O)c1c(C)c(C(C)c2ccn(C)c(=O)c2)n2ncccc12 (stereo not drawn) [Compound 110, N-((4-methoxy-6-methyl-2-oxo-1,2-dihydropyridin-3-yl)methyl)-6-methyl-7-(1-(1-methyl-2-oxo-1,2-dihydropyridin-4-yl)ethyl)pyrrolo[1,2-b]pyridazine-5-carboxamide] | < 100 nM | 2000 to 10000 nM | 100 to 1000 nM
2 | COc1cc(C)[nH]c(=O)c1CNC(=O)c1c(C)c(-c2c(C)noc2C)n2ncccc12 [Compound 114, 7-(3,5-dimethylisoxazol-4-yl)-N-((4-methoxy-6-methyl-2-oxo-1,2-dihydropyridin-3-yl)methyl)-6-methylpyrrolo[1,2-b]pyridazine-5-carboxamide] | < 100 nM | < 400 nM | < 100 nM
